Source: patent publication US20050159476A1, “Pharmaceutical composition for preventing or treating respiratory disease” (Chugai Seiyaku Kabushiki Kaisha, priority 2002, published 2005)
Where two headings read alike, the source gives them in different places.

Columns and labels:
Assay type in all cases: cell-based
[1] = tested on: human A549 cells; test: Protective effect against cell injury induced by oxidized LDL in human A549 cells (LDH leakage); details: for inhibition at 3 µM / inhibition at 30 µM: Homo sapiens, oxidized LDL 100 μg/mL, 24 hours, average ± standard error; for inhibition at 3 µM: 3 μmol/L test compound; for inhibition at 30 µM: 30 μmol/L test compound
Method: (§1) Oxidized LDL was prepared by maintaining 1 mg/mL of rabbit LDL at 37° C for 24 hours in PBS (-) containing 10 μmol/L CUSO4.
Human A549 cells used in this test are available under accession number ATCC-CCL-185 and have the properties of type II alveolar epithelial cells (Lieber M, Smith B, Szakal A, Nelson-Rees W, Todaro G., A continuous tumor-cell line from a human lung carcinoma with properties of type II alveolar epithelial cells. Int J Cancer Jan. 15, 1976; 17(1):62-70).
(§2) These cells were dispersed in F12K medium containing 10% FBS and plated on a 24-well plate at 2.5×10^4 cells/500 μL/well. These cells were incubated at 37° C. for 18 hours and then the medium was replaced by F12K medium containing 2% FBS. At this time, 2.5 μL of a solution or a suspension of each test compound in ethanol was added at the concentrations of the test compound of 3 μmol/L and 30 μmol/L in each well.
(§3) After incubation at 37° C. for 6 hours, 50 μL of a suspension of oxidized LDL was added per well at the concentration of oxidized LDL of 100 μg/mL in each well.
(§4) After incubation at 37° C. for 24 hours, 200 μL of the supernatant was collected from each well and the amount of lactate dehydrogenase (LDH) leaked from cells was determined by the SFBC method.
(§5) Further test was carried out in the same manner as the above test with the exception that each test compound was added to the cell culture after incubation for 6 hours following medium replacement and immediately before oxidized LDL was added thereto rather than when the medium was replaced with F12K medium containing 2% FBS.
(§6) Higher LDH levels in the supernatant indicate that greater cell injury is induced by oxidized LDL. Separately, one experiment was carried out using a well in the same manner as the above test with the exception that no test compound was added to the well. The level of LDH in this well was defined as 0% cell protection. In addition, other experiment was carried out using another well without adding either test compound or oxidized LDL but with adding saline instead. The level of LDH in this well was defined as 100% cell protection. These levels of LDH were used for calculating cell protection of each test compound used in the above test.
Probucol and α-tocopherol were tested for comparison with the compounds of the present invention. In this test, the test compounds were added to the cell culture after incubation for 6 hours following medium replacement and immediately before oxidized LDL was added.

[2] = tested on: normal human bronchial/tracheal epithelial cells (NHBE w/RA); test: Protective effect against cell injury induced by oxidized LDL in normal human bronchial/tracheal epithelial cells (LDH leakage); details: 24 h, average ± standard error; for inhibition at 3 µM: 3 μmol/L test compound; for inhibition at 30 µM: 30 μmol/L test compound
Method: as §1, §2, §3, §4, §5, §6
This test example was carried out in a similar manner to test example 1 except that human A549 cells were replaced with normal human bronchial/tracheal epithelial cells (NHBE w/RA: BioWhittaker Co.), cell culture medium was changed from F12K medium containing 10% FBS to BEGM® medium, and the replacement of medium was not made.

[3] = tested on: human A549 cells; test: Protective effect against cell injury induced by t-butyl hydroperoxide in human A549 cells; details: t-BuOOH in saline in each well
[4] = read-out: % Cell protection in the case where oxidized LDL was added 6 hrs after adding test compound
[5] = read-out: % Cell protection in the case where oxidized LDL was added immediately after adding test compound

With `CCCCCC1(CCCCC)Cc2c(cc(C(C)(C)C)c(O)c2C(C)(C)C)O1` [Compound 3, 4,6-di-t-butyl-2,2-di-n-pentyl-5-hydroxy-2,3-dihydrobenzofuran] the inhibition at 3 µM [1, 4] was 18.7 ± 2.1%, the inhibition at 3 µM [1, 5] was 14.3 ± 2.3% and the inhibition at 30 µM [1, 4] was 95 ± 2.5%. The inhibition at 30 µM [1, 5] was 85.4 ± 1.6%, the “% cell protection as a function of test compound concentration (FIG. 1)” value ([1]; test compound added immediately before oxidized LDL, Test Example 2) was “begins to sharply increase when the concentration of Compound 3 exceeds about 10 μmol/L” and the inhibition at 3 µM [2, 4] was 49.8 ± 6.4%. For the same molecule, the inhibition at 3 µM [2, 5] was 9.8 ± 3.3%, the inhibition at 30 µM [2, 4] was 70.8 ± 2% and the inhibition at 30 µM [2, 5] was 66.2 ± 2.6%. The “inhibition of cell injury induced by t-butyl hydroperoxide (FIG. 2)” value [3] was “inhibits cell injury”.
